Reference: ChEMBL document CHEMBL5316381, “Discovery of [1,2,3]Triazolo[4,5-c]quinoline Derivatives as a New Class of Ataxia-Telangiectasia Mutated Kinase Inhibitors” (ACS Med Chem Lett, 2023)
Calls of active or inactive are those of the source. The calls are words filed in the database; no cut-off is given here.

Assays:
[1] = system: SW-620; test: Induction of apoptosis in human SW620 cells assessed as viable cells at 10 nM measured after 72 hrs in presence of CPT-11 by Annexin V-FITC staining based flow cytometric analysis (reference value: 87.36%); format: functional; conditions: read-out: Activity
[2] = target: T1, Serine-protein kinase ATM (Homo sapiens, UniProt Q13315); test: Inhibition of ATM in human SW620 cells assessed as increase in gamma H2AX foci accumulation at 50 to 250 nM incubated for 24 hrs in the presence of CPT-11 by confocal microscopic analysis; format: cell-based; conditions: dose 50-250 nM
T1 sequence (Q13315 whole entry): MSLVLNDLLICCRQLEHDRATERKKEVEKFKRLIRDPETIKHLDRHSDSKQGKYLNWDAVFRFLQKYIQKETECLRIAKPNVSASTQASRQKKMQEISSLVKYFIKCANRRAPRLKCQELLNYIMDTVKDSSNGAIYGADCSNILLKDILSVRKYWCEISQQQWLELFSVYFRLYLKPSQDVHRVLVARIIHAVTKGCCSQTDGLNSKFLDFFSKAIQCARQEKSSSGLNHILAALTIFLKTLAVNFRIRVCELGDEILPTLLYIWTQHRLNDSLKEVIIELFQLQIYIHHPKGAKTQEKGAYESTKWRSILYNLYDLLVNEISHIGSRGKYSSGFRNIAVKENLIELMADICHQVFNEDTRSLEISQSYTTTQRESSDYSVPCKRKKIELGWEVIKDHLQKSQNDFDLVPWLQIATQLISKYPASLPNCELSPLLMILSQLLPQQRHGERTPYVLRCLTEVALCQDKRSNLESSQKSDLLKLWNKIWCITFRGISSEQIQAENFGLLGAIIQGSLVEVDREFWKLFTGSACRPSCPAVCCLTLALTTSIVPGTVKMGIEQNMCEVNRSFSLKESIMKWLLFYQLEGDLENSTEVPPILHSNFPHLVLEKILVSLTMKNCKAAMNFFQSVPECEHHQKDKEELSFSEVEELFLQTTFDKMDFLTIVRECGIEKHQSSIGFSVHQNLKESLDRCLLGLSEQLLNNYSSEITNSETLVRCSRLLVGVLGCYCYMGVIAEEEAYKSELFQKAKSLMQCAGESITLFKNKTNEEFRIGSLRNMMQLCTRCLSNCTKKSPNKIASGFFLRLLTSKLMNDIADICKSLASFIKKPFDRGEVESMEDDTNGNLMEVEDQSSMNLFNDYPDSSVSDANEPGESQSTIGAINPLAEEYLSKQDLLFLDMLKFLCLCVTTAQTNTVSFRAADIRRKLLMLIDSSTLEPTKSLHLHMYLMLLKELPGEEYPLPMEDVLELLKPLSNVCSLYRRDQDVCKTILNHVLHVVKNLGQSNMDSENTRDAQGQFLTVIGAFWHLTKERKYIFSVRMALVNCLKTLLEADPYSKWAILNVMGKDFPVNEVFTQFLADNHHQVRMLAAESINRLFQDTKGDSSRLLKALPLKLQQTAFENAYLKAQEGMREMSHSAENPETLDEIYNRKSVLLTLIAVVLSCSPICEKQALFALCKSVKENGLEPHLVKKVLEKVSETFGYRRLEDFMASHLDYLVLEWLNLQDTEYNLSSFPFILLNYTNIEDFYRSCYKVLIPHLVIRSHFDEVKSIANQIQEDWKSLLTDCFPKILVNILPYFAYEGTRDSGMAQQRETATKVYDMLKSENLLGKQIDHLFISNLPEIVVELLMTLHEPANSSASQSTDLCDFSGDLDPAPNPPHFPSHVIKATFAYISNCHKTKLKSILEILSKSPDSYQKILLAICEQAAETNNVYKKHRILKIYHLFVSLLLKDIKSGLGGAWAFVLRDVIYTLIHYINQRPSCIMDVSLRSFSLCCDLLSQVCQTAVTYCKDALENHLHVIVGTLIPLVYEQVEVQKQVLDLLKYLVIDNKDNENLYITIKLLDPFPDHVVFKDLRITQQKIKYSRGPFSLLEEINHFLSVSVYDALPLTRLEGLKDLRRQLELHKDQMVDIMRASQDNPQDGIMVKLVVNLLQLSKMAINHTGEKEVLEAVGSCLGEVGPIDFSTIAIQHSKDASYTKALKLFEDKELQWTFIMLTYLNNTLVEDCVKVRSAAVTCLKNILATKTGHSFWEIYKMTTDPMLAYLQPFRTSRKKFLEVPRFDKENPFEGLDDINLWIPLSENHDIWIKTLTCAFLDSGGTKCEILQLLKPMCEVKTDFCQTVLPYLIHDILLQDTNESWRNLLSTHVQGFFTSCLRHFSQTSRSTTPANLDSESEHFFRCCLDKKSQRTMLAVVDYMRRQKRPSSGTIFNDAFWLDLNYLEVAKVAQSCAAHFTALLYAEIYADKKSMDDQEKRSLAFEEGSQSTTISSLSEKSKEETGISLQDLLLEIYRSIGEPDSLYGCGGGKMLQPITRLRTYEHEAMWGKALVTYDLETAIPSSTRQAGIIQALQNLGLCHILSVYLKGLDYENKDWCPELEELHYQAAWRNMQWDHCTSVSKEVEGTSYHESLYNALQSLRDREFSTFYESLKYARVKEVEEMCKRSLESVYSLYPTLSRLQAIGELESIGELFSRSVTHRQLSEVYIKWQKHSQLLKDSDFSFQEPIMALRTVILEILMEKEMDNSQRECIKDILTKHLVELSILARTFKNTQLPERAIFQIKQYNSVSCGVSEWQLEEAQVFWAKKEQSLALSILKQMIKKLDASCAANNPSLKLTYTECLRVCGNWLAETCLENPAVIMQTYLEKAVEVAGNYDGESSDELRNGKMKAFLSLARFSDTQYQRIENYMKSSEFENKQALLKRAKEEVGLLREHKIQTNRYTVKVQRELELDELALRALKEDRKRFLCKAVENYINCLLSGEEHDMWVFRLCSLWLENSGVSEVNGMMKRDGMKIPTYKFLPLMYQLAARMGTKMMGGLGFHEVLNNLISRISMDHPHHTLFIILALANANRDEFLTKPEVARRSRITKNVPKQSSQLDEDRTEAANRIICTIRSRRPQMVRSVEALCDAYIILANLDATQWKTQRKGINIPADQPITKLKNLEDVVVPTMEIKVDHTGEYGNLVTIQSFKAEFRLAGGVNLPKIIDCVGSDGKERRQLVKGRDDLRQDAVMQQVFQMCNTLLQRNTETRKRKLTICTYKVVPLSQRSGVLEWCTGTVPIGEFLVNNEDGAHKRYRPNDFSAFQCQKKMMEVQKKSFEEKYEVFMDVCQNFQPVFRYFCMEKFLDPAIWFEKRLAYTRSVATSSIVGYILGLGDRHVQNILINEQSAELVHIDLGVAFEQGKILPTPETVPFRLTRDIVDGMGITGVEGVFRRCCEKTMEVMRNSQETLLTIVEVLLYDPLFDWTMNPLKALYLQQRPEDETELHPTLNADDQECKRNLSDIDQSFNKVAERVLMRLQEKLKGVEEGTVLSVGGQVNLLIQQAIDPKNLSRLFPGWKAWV

[3] = system: HCT-116; test: Induction of apoptosis in human HCT-116 cells assessed as early apoptotic cells at 10 nM measured after 72 hrs in presence of CPT-11 by Annexin V-FITC staining based flow cytometric analysis (reference value: 4.06%); format: functional
[4] = target: T1, Serine-protein kinase ATM; test: Inhibition of ATM (unknown origin) using GST-cMyc-p53 as substrate incubated for 30 mins in presence of Mg/ATP mix by HTRF-based analysis
[5] = system: SW-620; test: Induction of apoptosis in human SW620 cells assessed as late apoptotic cells at 100 nM measured after 72 hrs in presence of CPT-11 by Annexin V-FITC staining based flow cytometric analysis (reference value: 5.75%); format: functional
[6] = target: Serine/threonine-protein kinase Chk2 (Homo sapiens) (UniProt O96017); test: Inhibition of CPT-11 induced Chk2 phosphorylation in human SW620 cells by SDS-PAGE based Westernblot analysis; format: cell-based
[7] = system: SW-620; test: Induction of apoptosis in human SW620 cells assessed as necrotic cells at 30 nM measured after 72 hrs in presence of CPT-11 by Annexin V-FITC staining based flow cytometric analysis (reference value: 5.83%); format: functional
[8] = system: SW-620; test: Induction of apoptosis in human SW620 cells assessed as late apoptotic cells at 100 nM measured after 72 hrs by Annexin V-FITC staining based flow cytometric analysis (reference value: 5.75%); format: functional
[9] = system: SW-620; test: Induction of apoptosis in human SW620 cells assessed as early apoptotic cells at 10 nM measured after 72 hrs in presence of CPT-11 by Annexin V-FITC staining based flow cytometric analysis (reference value: 1.06%); format: functional
[10] = target: PI3-kinase p110-alpha/p85-alpha (Homo sapiens, UniProt P42336); test: Inhibition of human PI3K p110 alpha/p85 alpha using phosphatidylinositol-4, 5-bisphosphate as substrate incubated for 30 mins in the presence of Mg/ATP mix by HTRF-based analysis; format: protein-complex assay
Sequence of PI3-kinase p110-alpha/p85-alpha (P27986 whole entry): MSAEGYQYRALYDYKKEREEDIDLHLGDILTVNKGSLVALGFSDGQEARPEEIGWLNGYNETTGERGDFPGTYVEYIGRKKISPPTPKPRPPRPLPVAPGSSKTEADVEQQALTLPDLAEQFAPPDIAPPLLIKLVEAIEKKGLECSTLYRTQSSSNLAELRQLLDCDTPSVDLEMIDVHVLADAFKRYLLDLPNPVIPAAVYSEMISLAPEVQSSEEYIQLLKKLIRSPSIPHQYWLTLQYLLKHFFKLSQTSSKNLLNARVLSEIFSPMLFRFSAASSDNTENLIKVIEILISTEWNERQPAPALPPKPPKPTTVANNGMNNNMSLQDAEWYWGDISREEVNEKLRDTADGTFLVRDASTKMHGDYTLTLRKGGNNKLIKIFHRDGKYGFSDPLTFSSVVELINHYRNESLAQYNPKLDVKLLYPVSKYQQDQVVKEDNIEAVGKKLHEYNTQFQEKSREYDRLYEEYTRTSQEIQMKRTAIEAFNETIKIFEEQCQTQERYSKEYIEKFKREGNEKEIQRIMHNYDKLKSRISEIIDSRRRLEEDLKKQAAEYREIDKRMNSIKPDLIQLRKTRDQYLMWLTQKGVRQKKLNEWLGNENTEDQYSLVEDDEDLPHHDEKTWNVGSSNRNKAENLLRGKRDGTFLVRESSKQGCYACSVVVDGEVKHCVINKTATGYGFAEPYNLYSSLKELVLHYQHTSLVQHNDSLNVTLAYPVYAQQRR
Sequence of PI3-kinase p110-alpha/p85-alpha (P42336 whole entry): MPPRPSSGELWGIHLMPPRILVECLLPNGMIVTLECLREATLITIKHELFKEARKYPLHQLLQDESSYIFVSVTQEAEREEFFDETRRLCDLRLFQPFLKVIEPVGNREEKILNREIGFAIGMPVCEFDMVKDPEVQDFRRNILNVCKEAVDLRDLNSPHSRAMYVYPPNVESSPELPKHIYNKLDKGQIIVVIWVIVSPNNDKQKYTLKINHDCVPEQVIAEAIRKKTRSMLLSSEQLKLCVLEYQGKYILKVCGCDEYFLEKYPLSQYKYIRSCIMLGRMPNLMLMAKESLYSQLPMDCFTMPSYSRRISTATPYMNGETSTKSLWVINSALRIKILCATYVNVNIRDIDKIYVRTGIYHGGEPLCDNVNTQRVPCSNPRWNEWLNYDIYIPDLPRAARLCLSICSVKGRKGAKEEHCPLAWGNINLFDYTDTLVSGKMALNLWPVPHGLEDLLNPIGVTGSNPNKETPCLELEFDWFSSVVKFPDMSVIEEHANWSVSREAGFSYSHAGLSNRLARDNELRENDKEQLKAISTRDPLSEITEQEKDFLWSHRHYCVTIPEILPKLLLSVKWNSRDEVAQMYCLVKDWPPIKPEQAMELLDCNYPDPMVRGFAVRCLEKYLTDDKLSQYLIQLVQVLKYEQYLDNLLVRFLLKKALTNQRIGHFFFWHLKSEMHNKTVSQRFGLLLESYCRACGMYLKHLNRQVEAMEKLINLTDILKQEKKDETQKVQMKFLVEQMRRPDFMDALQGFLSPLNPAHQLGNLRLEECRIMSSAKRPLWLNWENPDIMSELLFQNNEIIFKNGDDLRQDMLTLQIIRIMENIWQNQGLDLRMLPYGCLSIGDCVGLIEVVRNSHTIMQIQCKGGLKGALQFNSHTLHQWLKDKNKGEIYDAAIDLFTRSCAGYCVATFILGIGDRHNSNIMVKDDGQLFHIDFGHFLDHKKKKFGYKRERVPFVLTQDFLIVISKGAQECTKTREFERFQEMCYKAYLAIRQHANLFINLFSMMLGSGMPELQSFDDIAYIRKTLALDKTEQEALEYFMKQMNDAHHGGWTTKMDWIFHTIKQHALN

[11] = system: SW-620; test: Induction of apoptosis in human SW620 cells assessed as early apoptotic cells at 100 nM measured after 72 hrs by Annexin V-FITC staining based flow cytometric analysis (reference value: 1.06%); format: functional
[12] = system: HCT-116; test: Induction of apoptosis in human HCT-116 cells assessed as viable cells at 100 nM measured after 72 hrs by Annexin V-FITC staining based flow cytometric analysis (reference value: 73.74%); format: functional; conditions: read-out: Activity
[13] = system: SW-620; test: In vivo inhibition of ATM in BALB/c mouse model xenografted with human SW620 cells assessed as inhibition of ATM phosphorylation at 5 mg/kg, ip administered once daily and measured after 23 days in the presence of CPT-11 by Western blot analysis; format: functional, organism-based; conditions: time 23.0 day
[14] = target: T1, Serine-protein kinase ATM; test: Inhibition of ATM in human SW620 cells assessed as increase in gamma H2AX foci at 250 nM incubated for 24 hrs by confocal microscopic analysis; format: cell-based
[15] = system: HCT-116; test: Induction of apoptosis in human HCT-116 cells assessed as viable cells at 1 uM measured after 72 hrs by Annexin V-FITC staining based flow cytometric analysis (reference value: 73.74%); format: functional; conditions: read-out: Activity

C[C@H](c1ccccc1)n1nnc2cnc3ccc(-c4ccc(OCCCN(C)C)nc4)cc3c21
viability at 0.01 µM [1]: 64.1%
inhibition [2]: Active
Activity [3]: 1.1%
IC50 [4]: 1 nM
Activity [5]: 60.69%
inhibition [6]: Dose-Dependent Effect
Activity [7]: 1.83%
Activity [8]: 11.57%
Activity [9]: 2.76%
IC50 [10]: > 10000 nM
Activity [11]: 1.88%
viability at 0.1 µM [12]: 75.3%
inhibition [13]: Active
inhibition [14]: Active
viability at 1 µM [15]: 62.1%
